Columns and labels:
excisional wounds = assay: Full-thickness excisional wound healing, 7 days; type: in vivo, rat
Description: All animal procedures were performed in accordance with the NIH Guidance for the Care and Use of Laboratory Animals. The current study used, respectively the GK and Dexamethasone-treated rats as models for diabetes and hypercortisolemia. Dexamethasone was administered subcutaneously at a dose of 2.5 μg/kg body weight in the morning (8:00 AM) and in the evening (8:00 PM) for a duration of four weeks before wounding and this form of therapy continued during the course of healing. […] Weight and age-matched female Wistar rats (Kuwait University breeding colony) served as the corresponding controls. All of the animals were maintained under standard conditions with 12 hours on/off light cycle, commercial diet, and water ad libitum. GK rats destined for wounding were initially matched with regard to body weight (e.g., 230 to 250 g), and plasma levels of glucose, free fatty acids and insulin. These indices are commonly used to reflect the severity of the diabetic state.
Animals used for IGF-1 sensitivity (n=6/group) and wound healing (n=8) studies were partitioned into five study groups including control, diabetic, hypercortisolemic, diabetic+EUK and hypercortisolemic+EUK. The EUK-134 was administered for duration of four weeks before wound induction and it continued during the course of healing.
Animals derived from various experimental groups were anesthetized by ip, injection of 90 mg ketamine+10 mg xylazine/kg body weight, and their back skin was shaved, depilated with Nair and cleaned with 70% alcohol. Six bilateral full-thickness excisional wounds (8 mm in diameter) at equidistant from midline were created on the dorso-rostral back skin. Wounds were separated by a minimum of 1 cm of uninjured skin. […] The wound area was analyzed using Adobe PhotoShop (version 7.0; Adobe Systems) and the percentage of wound closure was derived by the following formula: (1−[current wound size/initial wound size])×100.

dermal fibroblasts = assay: Radiolabelled proline uptake assay (collagen synthesis) in fibroblasts; type: cell-based, rat; details: diabetic, TNF-α- or dexamethasone-exposed cells; EUK-134
Description: (§1) Primary dermal fibroblasts were obtained from dorsal skin of female Goto Kakizaki (GK, age 12-15 months) rats, a model for non-obese type 2 diabetes, and their Wistar control counterparts. After sterilization in povidine solution, rat skin was washed in sterile water and rinsed in 70% ethanol in PBS. Epidermis and dermis were separated following overnight incubation in 0.25% trypsine/EDTA at 4 C. Dermis was cut into small pieces and incubated in Dulbecco's modified Eagle medium (DMEM; Invitrogen) containing collagenase (250 U/ml; Sigma) for thirty min at 37 C in 5% CO2 with constant agitation. The sections were triturated vigorously to release fibroblasts, which were collected by centrifugation. […]
(§2) A hypercortisolemic state was mimicked by exposing control fibroblasts to dexamethasone (Dexa, Sigma) administered at 20 ng/ml every other day for a duration of 8 days. […] The concentration of IGF-1 (50 ng/ml, Peprotech) was determined by prior dose response experiment.
The proliferation and collagen synthesis of cultured fibroblasts were determined using, respectively the 5-bromo-2-deoxyuridine (BrdU) incorporation into DNA and a radiolabelled proline uptake assay.
A radiolabel proline uptake assay was used in the quantification of the rate of collagen synthesis in cultured fibroblasts derived from various experimental groups. […]

[1] = test system: Jun N-terminal kinase (JNK); assay: JNK phosphorylation, FACE-JNK ELISA in fibroblasts; type: cell-based, rat; details: diabetic, TNF-α- or dexamethasone-exposed cells; EUK-134
Description: as §1, §2
Activation of Akt and JNK was analyzed in fixed fibroblasts using FACE-Akt and FACE-JNK (both from Active Motife). […] Labeling with antibodies was conducted according to the manufacturer's protocol and the resulting phosphoantibody signal was calculated after correction for number of cells and total Akt or JNK levels in each sample. […]

[2] = test system: reactive oxygen species (ROS); assay: ROS generation in cultured fibroblasts (DCF-DA); type: cell-based, rat
Description: Primary dermal fibroblasts were obtained from dorsal skin of female Goto Kakizaki (GK, age 12-15 months) rats, a model for non-obese type 2 diabetes, and their Wistar control counterparts. After sterilization in povidine solution, rat skin was washed in sterile water and rinsed in 70% ethanol in PBS. Epidermis and dermis were separated following overnight incubation in 0.25% trypsine/EDTA at 4 C. Dermis was cut into small pieces and incubated in Dulbecco's modified Eagle medium (DMEM; Invitrogen) containing collagenase (250 U/ml; Sigma) for thirty min at 37 C in 5% CO2 with constant agitation. The sections were triturated vigorously to release fibroblasts, which were collected by centrifugation. The cell pellet was washed two times with PBS, re-suspended in complete medium (DMEM supplemented with 10% fetal calf serum, penicillin (100 U/ml), streptomycin (100 μg/ml)), 2 mM L-glutamine and 10 mM HEPES) and then cultured under a standard condition.
as §2, with “days. Similarly, the state of low-grade inflammation in fibroblasts was recapitulated experimentally by exposing these cells to TNF-α (4 ng/ml every day for 4 days).” for “days.”
ROS generation in cultured fibroblasts was evaluated using dichloroflurescein-diacetate (DCF-DA, Molecular Probes), a probe that is oxidized to the fluorescent product DCF upon exposure to hydrogen peroxide, peroxynitrite, hydroxyl radical and nitric oxide. Its concentration serves as an indicator of the overall degree of intracellular oxidative stress.
Cells seeded in 96-well plates were incubated for thirty minutes at 37 C in serum free media containing 5 μM of DCF-DA. The plates were then washed twice with Krebs Ringer Buffer (KR) and the fluorescence readings were taken every 15 min for 1 hr at Ex=485 and Em=530. Subtracted background values were obtained from wells containing DCF-DA without cells. […]

Q: Which results are given for `COc1cccc(C=NCCN=Cc2cccc(OC)c2[O-])c1[O-].[Cl-].[Mn+3]` [EUK-134]?
A: wound healing (excisional wounds; diabetic rats, treatment with EUK-134 and/or IGF-1): heal as rapidly as those on control rats; healing rates of wounds (excisional wounds; diabetic/hypercortisolemic rat wounds, antioxidant administered): statistically indistinguishable from control rat wounds treated with IGF-1 alone; proline uptake (collagen synthesis) (dermal fibroblasts): returns it to approximately control levels; basal JNK activity (phosphorylation) [1]: returns its phosphorylation state to approximate levels found in normal fibroblasts; reactive oxygen species (ROS) levels ([2]; diabetic, TNF-α- or dexamethasone-exposed cells, EUK-134): approximately restores normal ROS levels; HSOS (oxidative stress) ([2]; fibroblasts with diabetic, inflammatory or hypercortisolemia phenotypes, ROS suppressors): lessen the HSOS

From patent US8637461B2, “Method of diagnosing and treating oxidative stress-impaired wound healing” (Kuwait University, priority 2011, dated 2014)
